Reference: paper PMC9727064, “Performance assessment and economic analysis of a human Liver-Chip for predictive toxicology” (Communications Medicine, 2022)
“Also recorded” adds a separate entry of the source. Like-named read-outs stand apart in the source and are kept apart here.

Tests used:
[1] = system: human Liver-Chip (primary human hepatocytes); assay: Liver-Chip alanine transaminase (ALT) release in top channel effluent (ELISA); type: cell-based
[2] = system: clinical drug-induced liver injury; details: clinical DILI severity category 1 to 5; cited from earlier work
human Liver-Chip = assay: Liver-Chip DILI prediction: minimum toxic concentration and margin of safety (MOS)-like figure; details: for Chip MOS donor 1 / Chip MOS both donors / Chip MOS donor 2: free IC50 concentration in the assay divided by total concentration of drug in human plasma at Cmax; for Liver-Chip toxicity determination, MOS-like figure against threshold value of 50: not corrected for protein binding, donors one and two;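 for Chip MOS both donors: Toxic concentration is the lowest across albumin IC50 and ALT and morphology endpoints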;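 for Chip MOS donor 1: Toxic concentration is the lowest across albumin IC50 and ALT and morphology endpoints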;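 for Chip MOS donor 2: Toxic concentration is the lowest across albumin IC50 and ALT and morphology endpoints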
Source text: Because the fundamental principles of drug action dictate that free (unbound) drug concentrations drive drug effects, we explored an alternative methodology for calculating the MOS-like values by accounting for protein binding using a previously reported approach. Accordingly, we reanalyzed the findings for the 27 drugs in our study by accounting for protein binding.

[3] = system: 3D spheroid cultures of primary human hepatocytes; details: cited from earlier work; for Spheroid false negative: Yes/No, also No for drugs not tested in spheroid; for Spheroid MOS: 3D hepatic spheroids, previously published data; for Toxicity detection in 3D hepatic spheroids: threshold 50
[4] = plasma, cited from earlier work
[5] = system: human Liver-Chip (hepatocyte layer); assay: Liver-Chip immunofluorescence imaging (caspase 3/7, TMRM, AdipoRed/LipidTOX); type: cell-based
Summary of the method: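 Fixed Liver-Chip halves stained for lipid (LipidTOX Deep Red 1:1000 with NucBlue, 30 min RT) and MRP2 antibody; live bottom halves stained with TMRM (1:1000) plus NucBlue, 30 min at 37 °C. Confocal z-stacks (3.6 µm steps, 28–32 planes) acquired on a high-content imager at 37 °C/5% CO2.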

[6] = expanded drug list, lowest concentration causing an increase in ALT release
[7] = day 7 post-drug administration, hepatocyte layer, top channel
[8] = lowest concentration causing an increase in ALT protein

| Compound | ALT Donor 1 [1, 6] | Garside DILI rank [2] | Chip MOS donor 1 (human Liver-Chip) | Spheroid false negative [3] | Expected Fraction Unbound in Plasma ([4]; ref Lau, S.W.J. (65)) | Immunofluorescent findings, donor one (Supplementary Figure 3) [5, 7] | IF imaging Donor 1 ([5]; expanded drug list) | Chip MOS both donors (human Liver-Chip) | Chip MOS donor 2 (human Liver-Chip) | ALT Donor 2 [1, 6] | Liver-Chip toxicity determination, MOS-like figure against threshold value of 50 (human Liver-Chip) | Spheroid MOS [3] | Toxicity detection in 3D hepatic spheroids [3] | IF imaging Donor 2 ([5]; expanded drug list) | also measured |
| --- | --- | --- | --- | --- | --- | --- | --- | --- | --- | --- | --- | --- | --- | --- | --- |
| O=C(NC1CCN(CCCCC2(C(=O)NCC(F)(F)F)c3ccccc3-c3ccccc32)CC1)c1ccccc1-c1ccc(C(F)(F)F)cc1 [Lomitapide] | > 1000 unbound human Cmax multiplier | 3 | 0 | No | 0.002 | No findings | No findings | – | – | – | – | – | – | – | Hepatotoxicity in the Liver-Chip, in words (human Liver-Chip; albumin, ALT and morphology endpoints together): highly toxic |
| Cc1cc2c(s1)Nc1ccccc1N=C2N1CCN(C)CC1 [Olanzapine] | – | 5 | >20 | No | – | Apoptosis | – | >20 | >2 | – | – | – | – | – | ALT Donor 1 [1, 8]: >300 multiples of the unbound human Cmax; ALT Donor 2 [1, 8]: >300 multiples of the unbound human Cmax; ALT Donor 3 ([1]; lowest concentration causing an increase in ALT protein, donor 3): >300 multiples of the unbound human Cmax; Expected Fraction Unbound in Plasma ([4]; reference data from the literature, no reference): 0.07; Immunofluorescent findings, donor three (Supplementary Figure 3) ([5]; day 7 post-drug administration, hepatocyte layer, top channel, donor three): No findings; IF imaging Donor 1 ([5]; matched pair analysis): Apoptosis; IF imaging Donor 2 ([5]; matched pair analysis): No findings; IF imaging Donor 3 ([5]; matched pair analysis, donor 3): No findings |
| Cc1cn([C@H]2C=C[C@@H](CO)O2)c(=O)[nH]c1=O [Stavudine] | 300 unbound human Cmax multiplier | 1 | 247 | Yes | 1 | No findings | No findings | 107 | 107 | > 300 unbound human Cmax multiplier | not detected; also recorded: false negative | >144 | not detected as toxic drugs in spheroids | Mitotoxicity | Liver-Chip toxicity determination, protein-binding-corrected MOS-like figure, threshold 375 (human Liver-Chip; 18 drugs tested in both donors): detection; Immunofluorescent findings, donor two (Supplementary Figure 3) ([5]; day 7 post-drug administration, hepatocyte layer, top channel, donor two): Mitotoxicity |
| Nc1c2c(nc3ccccc13)CCCC2 [Tacrine] | > 300 unbound human Cmax multiplier | 2 | >12 | Yes | 0.25 | Apoptosis | Apoptosis | >12 | >12 | > 1000 unbound human Cmax multiplier | not detected | 696 | not detected as toxic drugs in spheroids | Apoptosis | ALT change in words ([1]; Liver-Chip effluent): not associated with any release of ALT; Immunofluorescence staining result in words ([5]; caspase 3/7 (apoptosis) or TMRM (mitotoxicity), 7 days): increased caspase 3/7 staining |
